What was measured:
Cbl-b [1] = target: T1, Cbl-b (Homo sapiens, UniProt Q13191); assay: Cbl-b activity assay (Cbl-b inhibition assay), TR-FRET of Cbl-b interaction with UbcH5B-Ub; type: biochemical; details: assay buffer with 100 mM NaCl, 60 nM Src kinase; read-out: Cbl-b activity IC50
Outline: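 Compound-treated Cbl-b was incubated 1.5 h with Src kinase (60 nM final; 30 nM for asterisked values, which also used 50 mM instead of 100 mM NaCl), 1 mM ATP and 5 mM MgCl2. Binding to fluorescent Ub-loaded UbcH5B (C85K mutant) was then read by TR-FRET after 1 h more.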

Cbl-b [2] = target: T1, Cbl-b; assay: Cbl-b inhibition assay (Cbl-b activity assay, FRET, Biological Example 1; 100 mM NaCl, 60 nM Src kinase); type: biochemical; details: upper bound stated in text lists; read-out: IC50 values in the Cbl-b inhibition assay of Biological Example 1
Outline: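 Steps: Src kinase phosphorylates N-terminal biotinylated Avi-tagged Cbl-b; phosphorylated Cbl-b binds Bodipy-fluorescein ubiquitin-loaded UbcH5B; streptavidin-terbium on Cbl-b sits close to the fluorescein label, producing FRET. Inhibitors block UbcH5B-Ub binding.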

T-cell [3] = assay: CD25 cell surface staining on T-cells stimulated with anti-CD3 antibody alone (Biological Example 2); type: cell-based, human; details: T-cell, fold change over baseline, primary human total T-cells, read-out: CD25 staining Anti-CD3 stimulation; for fold induction at 1 µM: 1 μM Cbl-b inhibitor; for fold induction at 8 µM: 8 μM Cbl-b inhibitor
T-cell [4] = assay: CD25 cell surface staining on T-cells co-stimulated with anti-CD3 and anti-CD28 antibody (Biological Example 2); type: cell-based, human; details: Homo sapiens, T-cell, fold change over baseline, primary human total T-cells, read-out: CD25 staining Anti-CD3/Anti-CD28 stimulation; for fold induction at 0.3 µM: 0.3 μM Cbl-b inhibitor; for fold induction at 1 µM: 1 μM Cbl-b inhibitor; for fold induction at 4 µM: 4 μM Cbl-b inhibitor
Outline: (§1)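 Values are fold-change over baseline: readings (IL-2 release, CD25 staining) from inhibitor-treated T-cells divided against untreated cells […]. No detailed procedure stated.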

T-cell [5] = assay: IL-2 secretion from T-cells co-stimulated with anti-CD3 and anti-CD28 antibody (Biological Example 2); type: cell-based, human; details: Homo sapiens, T-cell, fold change over baseline, primary human total T-cells, read-out: IL-2 secretion Anti-CD3/Anti-CD28 stimulation; for fold induction at 0.3 µM: 0.3 μM Cbl-b inhibitor; for fold induction at 1 µM: 1 μM Cbl-b inhibitor; for fold induction at 4 µM: 4 μM Cbl-b inhibitor
Outline: as §1

T-cell [6] = assay: IL-2 secretion from T-cells stimulated with anti-CD3 antibody alone (Biological Example 2); type: cell-based, human; details: T-cell, fold change over baseline, primary human total T-cells, read-out: IL-2 secretion Anti-CD3 stimulation; for fold induction at 1 µM: 1 μM Cbl-b inhibitor; for fold induction at 8 µM: 8 μM Cbl-b inhibitor

T1 sequence (Q13191 36-427): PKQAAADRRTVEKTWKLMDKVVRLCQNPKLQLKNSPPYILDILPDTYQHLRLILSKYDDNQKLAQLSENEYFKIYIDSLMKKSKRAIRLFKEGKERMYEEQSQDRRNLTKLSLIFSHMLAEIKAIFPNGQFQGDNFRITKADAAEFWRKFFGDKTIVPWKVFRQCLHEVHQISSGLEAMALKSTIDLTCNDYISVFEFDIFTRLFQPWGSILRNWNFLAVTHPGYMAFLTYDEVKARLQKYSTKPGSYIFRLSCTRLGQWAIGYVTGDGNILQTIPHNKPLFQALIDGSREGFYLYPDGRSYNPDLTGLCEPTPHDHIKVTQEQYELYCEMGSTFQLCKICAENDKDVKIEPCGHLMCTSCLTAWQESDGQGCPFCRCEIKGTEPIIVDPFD

Compound	IC50 (Cbl-b [1])	IC50 (Cbl-b [2])	fold induction at 1 µM (T-cell [3])	fold induction at 8 µM (T-cell [3])	fold induction at 0.3 µM (T-cell [4])	fold induction at 1 µM (T-cell [4])	fold induction at 4 µM (T-cell [4])	fold induction at 0.3 µM (T-cell [5])	fold induction at 1 µM (T-cell [5])	fold induction at 4 µM (T-cell [5])	fold induction at 1 µM (T-cell [6])	fold induction at 8 µM (T-cell [6])
Cn1cnnc1CC1(c2cccc(NC(=O)c3cc(C4CC4)nc(C4CC4)n3)c2)COC1 [Compound 347, 2,6-dicyclopropyl-N-(3-(3-((4-methyl-4H-1,2,4-triazol-3-yl)methyl)oxetan-3-yl)phenyl)pyrimidine-4-carboxamide]	< 0.1 µM	≤ 0.1 µM	> 1	> 1	1.01 to 1.3	1.01 to 1.3	1.31 to 1.5	2.51 to 5	> 7.5	> 7.5	0.151 to 0.2	> 0.201
CN1CCN(c2cc(C(=O)Nc3cccc(C4(Cc5nncn5C)COC4)c3)nc(C3CC3)n2)CC1 [Compound 348, 2-Cyclopropyl-N-(3-(3-((4-methyl-4H-1,2,4-triazol-3-yl)methyl)oxetan-3-yl)phenyl)-6-(4-methylpiperazin-1-yl)pyrimidine-4-carboxamide]	< 0.1 µM	≤ 0.1 µM	0.801 to 1	–	1.31 to 1.5	1.31 to 1.5	–	2.51 to 5	> 7.5	–	> 0.201	–
C[C@H](Cc1nncn1C)c1cc(NC2CCC2)nc(N2Cc3c(cccc3C(F)(F)F)C2=O)c1 [Compound 351, 2-[6-(cyclobutylamino)-4-[(2R)-1-(4-methyl-4H-1,2,4-triazol-3-yl)propan-2-yl]pyridin-2-yl]-4-(trifluoromethyl)-2,3-dihydro-1H-isoindol-1-one]	0.1 to 0.3 µM	≤ 0.3 µM	0.601 to 0.8	> 1	1.01 to 1.3	1.01 to 1.3	1.01 to 1.3	1.01 to 2.5	1.01 to 2.5	1.01 to 2.5	< 0.05	0.151 to 0.2
C[C@H](Cc1nncn1C)c1cc(OC2COC2)nc(N2Cc3c(cccc3C(F)(F)F)C2=O)c1 [Compound 354, 2-{4-[(2R)-1-(4-methyl-4H-1,2,4-triazol-3-yl)propan-2-yl]-6-(oxetan-3-yloxy)pyridin-2-yl}-4-(trifluoromethyl)-2,3-dihydro-1H-isoindol-1-one]	0.1 to 0.3 µM	≤ 0.3 µM	0.601 to 0.8	> 1	1.01 to 1.3	1.01 to 1.3	1.31 to 1.5	1.01 to 2.5	1.01 to 2.5	5 to 7.5	0.101 to 0.15	> 0.201
C[C@H](Cc1nncn1C)c1cc(OCC(F)F)nc(N2Cc3c(cccc3C(F)(F)F)C2=O)c1 [Compound 356, (R)-2-(6-(2,2-difluoroethoxy)-4-(1-(4-methyl-4H-1,2,4-triazol-3-yl)propan-2-yl)pyridin-2-yl)-4-(trifluoromethyl)isoindolin-1-one]	< 0.1 µM	≤ 0.1 µM	0.801 to 1	> 1	1.01 to 1.3	1.01 to 1.3	1.31 to 1.5	2.51 to 5	2.51 to 5	> 7.5	0.151 to 0.2	> 0.201

Source: patent US20220324835A1 (Nurix Therapeutics, Inc., priority 2018, published 2022)
